Values quoted from earlier work in PMC9814429, “First-in-human phase I dose-escalation and dose-expansion trial of the selective MEK inhibitor HL-085 in patients with advanced melanoma harboring NRAS mutations” (BMC Medicine, 2023).

System: NRAS mutant melanoma
Set-up: method as in PMID 28284557
Conditions: phase 3, NRAS mutant melanoma

Compound: Cn1cnc2c(F)c(Nc3ccc(Br)cc3F)c(C(=O)NOCCO)cc21 [binimetinib]
- DCR: 58%
- ORR: 15%
- PFS: 2.8 months
